Data from patent US8618175B2, “Ultrasound medical gel composition etherified hydroxyethylcellulose” (Brussels Ventures Corp., priority 2010, dated 2013).

Assay: Spreading ability of solvents, drop on Standard No. 1 filter paper
Type: physicochemical
Conditions: for Drop Diameter After Set period of time 0(h) / Drop Diameter After Set period of time 0.5(h) / Drop Diameter After Set period of time 1(h) / Drop Diameter After Set period of time 8(h): average of 3 trials
Method: The spreading ability of various solvents was measured. Solvents including an antimicrobial agent, as well as solvents without an antimicrobial agent, were tested. Benzalkonium chloride was used as an antimicrobial agent. Spreading ability was measured by dropping one drop of liquid onto Standard No. 1 filter paper, and measuring the diameter of each drop at various time periods. The results are shown below in table 3, and reflect the average results obtained after 3 trials for each sample.

| Compound | % Increase in drop diameter after 8 h (antimicrobial agent 0 wt %) [%] | Drop Diameter After Set period of time 0(h) (antimicrobial agent 0 wt %) | Drop Diameter After Set period of time 0.5(h) (antimicrobial agent 0 wt %) | Drop Diameter After Set period of time 1(h) (antimicrobial agent 0 wt %) | Drop Diameter After Set period of time 8(h) (antimicrobial agent 0 wt %) | % Increase in drop diameter after 8 h (benzalkonium chloride 3.2 wt %) [%] | Drop Diameter After Set period of time 0(h) (benzalkonium chloride 3.2 wt %) | Drop Diameter After Set period of time 0.5(h) (benzalkonium chloride 3.2 wt %) | Drop Diameter After Set period of time 1(h) (benzalkonium chloride 3.2 wt %) | Drop Diameter After Set period of time 8(h) (benzalkonium chloride 3.2 wt %) |
| --- | --- | --- | --- | --- | --- | --- | --- | --- | --- | --- |
| CC(O)CO (stereo not drawn) [Propylene Glycol] | 120 | 10.0 | 28.0 | 29.0 | 22.0 | 100 | 12.3 | 28.0 | 29.0 | 24.6 |
| OCCCO [Propanediol (Zemea ™), Propanediol] | 263 | 10.6 | 32 | 33.5 | 38.5 | 249 | 10.6 | 30.3 | 32.3 | 37.0 |
| OCC(O)CO [Glycerin 99%, Glycerin] | 357 | 7.0 | 22.3 | 23.6 | 32.0 | 632 | 4.0 | 22.6 | 24.0 | 29.3 |
